Test results reported in publication PMC8125951, “Exploring the 2′-Hydroxy-Chalcone Framework for the Development of Dual Antioxidant and Soybean Lipoxygenase Inhibitory Agents” (Molecules, 2021).
Where “and” joins values, the source holds several entries; their conditions need not be identical. Equal entries are not always repeated. Where two headings read alike, the source gives them in different places.

Experiments:
[1] = Competition of the tested compounds with DMSO for hydroxyl radicals; details: 100 μM
Description: Among the reactive oxygen species (ROS), the hydroxyl (^•OH) free radical is possibly the most toxic, reacting with several biological important molecules such as DNA, lipids, or carbohydrates. Polyunsaturated fatty acids are particularly vulnerable by free radicals. Iron released from damaged cells is more likely to be readily available to catalyze the generation of ^•OH radicals. Thus, we tried to test the ability of our compounds to scavenge hydroxyl radicals determining the competition of selected chalcones and aurones with DMSO for hydroxyl radicals. Hydroxyl radicals were generated using the Fe^3+/ascorbic acid system and expressed as a percentage inhibition of formaldehyde production in the presence of each compound at 100 μM.
The hydroxyl radicals generated by the Fe^3+ / ascorbic acid system, were detected by the determination of formaldehyde produced from the oxidation of DMSO (Table 2). A negative control using the same % DMSO was used. Trolox was used as reference compound [75].

[2] = Interaction with the stable free radical DPPH (reducing activity)
Description: The first assay refers to the interaction of the compounds with the stable free radical DPPH and it is a fast, simple, cost-effective, and widely used method, where the DPPH radical reacts directly with the antioxidant and is decolorized. This interaction indicates their radical scavenging ability in an iron-free system. The scavenging effect of the synthesized analogues on the DPPH radical was evaluated according to the methods of Hadjipavlou et al..
To an ethanolic solution of DPPH (100 μM) in absolute ethanol, an equal volume of the compounds dissolved in DMSO was added (100 μM). […]

soybean lipoxygenase = target: T1, soybean lipoxygenase (Glycine max, UniProt P08170); assay: Soybean LOX inhibition study in vitro; format: biochemical
T1 sequence (P08170 1-839): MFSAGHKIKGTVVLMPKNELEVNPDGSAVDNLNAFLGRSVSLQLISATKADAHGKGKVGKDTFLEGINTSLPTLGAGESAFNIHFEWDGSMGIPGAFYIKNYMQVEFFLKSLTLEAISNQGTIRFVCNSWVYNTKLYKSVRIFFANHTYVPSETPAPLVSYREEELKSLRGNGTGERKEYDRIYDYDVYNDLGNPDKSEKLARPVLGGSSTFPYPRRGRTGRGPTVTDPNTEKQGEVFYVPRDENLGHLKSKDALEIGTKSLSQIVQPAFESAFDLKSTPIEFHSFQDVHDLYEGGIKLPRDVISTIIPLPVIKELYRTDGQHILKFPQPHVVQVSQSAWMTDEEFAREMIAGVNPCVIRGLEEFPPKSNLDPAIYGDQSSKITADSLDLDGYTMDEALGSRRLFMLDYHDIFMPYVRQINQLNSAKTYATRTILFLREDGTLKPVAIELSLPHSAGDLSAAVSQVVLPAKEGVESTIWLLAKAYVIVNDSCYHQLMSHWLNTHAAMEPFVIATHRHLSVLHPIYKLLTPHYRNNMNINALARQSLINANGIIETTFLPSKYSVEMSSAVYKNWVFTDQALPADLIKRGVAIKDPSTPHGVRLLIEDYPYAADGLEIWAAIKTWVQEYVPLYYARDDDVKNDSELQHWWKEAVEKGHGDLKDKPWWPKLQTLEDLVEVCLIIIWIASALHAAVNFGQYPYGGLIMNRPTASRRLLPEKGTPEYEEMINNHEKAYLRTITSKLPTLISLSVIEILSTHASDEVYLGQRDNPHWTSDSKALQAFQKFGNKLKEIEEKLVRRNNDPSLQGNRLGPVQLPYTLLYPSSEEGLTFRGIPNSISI
Description: Furthermore, as an indication of their anti-inflammatory activity, all the molecules were tested as inhibitors of soybean lipoxygenase (LOX). The enzyme lipoxygenase catalyzes the first two steps in the metabolism of arachidonic acid, which is cleaved from membrane phospholipids to leukotrienes (LTB4). LTB4 generation is considered to be important in the pathogenesis of neutrophil-mediated inflammatory diseases. For this study, the UV absorbance-based soybean LOX assay was used, which is a plant enzyme with satisfactory homology with the human 5-LOX [61, 62, 63, 64, 65, 66].
The tested compounds dissolved in DMSO were incubated at room temperature with sodium linoleate (0.1 mL) and 0.2 mL of enzyme solution ([…] in saline) in Tris buffer pH 9.

[3] = ABTS radical cation decolorization assay; details: 100 μM
Description: The ABTS radical cation decolorization assay was used as another antioxidant activity estimation protocol (Table 2). Oxidation of ABTS with potassium persulfate generates directly the radical with no involvement of an intermediate radical, which is then reduced upon adding electron-donating antioxidants.
In order to produce the ABTS radical cation (ABTS^+·), ABTS stock solution in water (7 mM) was mixed with potassium persulfate (2.45 mM) and left in the dark at room temperature for 12–16 h before use. Our published experimental technique was used (1). The results are recorded after 1 min of the mixing solutions at 734 nm. The results were compared to the appropriate standard inhibitor Trolox.

[4] = Inhibition of linoleic acid lipid peroxidation induced by AAPH
Description: The second technique is based on the ability of the compounds to inhibit lipid peroxidation of linoleic acid induced by 2,2′-Azobis(2-amidinopropane) dihydrochloride (AAPH) radical (Table 2). AAPH-induced linoleic acid oxidation has been developed as a quick and reliable method for measuring the antioxidant activity. The thermal free radical producer (AAPH) generates free radicals in the solution which cause the oxidation of linoleic acid, and the method is a measure of how effective antioxidants protect against lipid peroxidation in vitro. Oxidation of linoleic acid by AAPH is followed by UV spectrophotometry in a highly diluted sample [61].
2,2′-Azobis(2-amidinopropane) dihydrochloride (AAPH) was used as a free radical initiator. Ten microliters of the 16 mM linoleic acid sodium salt solution was added to the UV cuvette containing 0.93 mL of 0.05 M phosphate buffer, pH 7.4 prethermostated at 37 °C. The oxidation reaction was initiated at 37 °C under air by the addition of 50 μL of 40 mM AAPH solution. Oxidation was carried out in the presence of the synthesized compounds (10 μL, from a stock solution of 10 mM in DMSO). In the assay without antioxidant, lipid oxidation was measured in the presence of the same level of DMSO.

[5] = read-out: Inhibition of Soybean Lipoxygenase IC50
[6] = read-out: Inhibition of Soybean Lipoxygenase 100 μM (%), at 100 μM

Row | Compound | IC50 (soybean lipoxygenase; [5]) [µM] | Interaction with the Free Radical DPPH (%) ([2]; 100 μM, 60 min) | Inhibition of Lipid Peroxidation of Linoleic Acid Induced by AAPH Radical (%) ([4]; 100 μM) | Interaction with the Free Radical DPPH (%) ([2]; 100 μM, 20 min) | other results
1 | COCOc1ccc(C(=O)/C=C/c2ccc(OCOC)c(OCOC)c2)c(O)c1 [Compound 3a, 2′-hydroxy-4′,3,4-methoxymethoxy-chalcone] |  | 21.6% | 11.4% |  | HO· (%) competition with DMSO for hydroxyl radicals [1]: 40%; inhibition at 100 µM (soybean lipoxygenase; at 100 μM, read-out: Inhibition of Soybean Lipoxygenase 100 μM (%)): 40.2%; ABTS+· % [3]: 93%
2 | COc1ccc(/C=C/C(=O)c2cc(Cl)ccc2O)cc1OC [Compound 3d, 5′-chloro-3,4-dimethoxy-2′-hydroxy-chalcone] |  | no | no | no | inhibition at 100 µM (soybean lipoxygenase; [6]): 32%
3 | COc1cccc(/C=C/C(=O)c2cc(Cl)ccc2O)c1OC [Compound 3e, 5′-chloro-2,3-dimethoxy-2′-hydroxy-chalcone] | 100 | no | 20.0% | no | 
4 | COc1ccc(/C=C/C(=O)c2cc(Br)ccc2O)cc1OC [Compound 3f, 5′-bromo-3,4-dimethoxy-2′-hydroxy-chalcone] |  | no | inactive and no | totally inactive and no | inhibition at 100 µM (soybean lipoxygenase; [6]): 38%
5 | COc1ccc(/C=C/C(=O)c2cc(Br)cc(Br)c2O)cc1OC [Compound 3g, 3′,5′-dibromo-3,4-dimetoxy-2′-hydroxy-chalcone] | 68.5 | no | inactive and 31.0% | totally inactive and no | 
6 | O=C(/C=C/c1ccccc1)c1ccccc1O [Compound 3l, 2′-hydroxy-chalcone] |  | no | 87.6% | no | IC50 (soybean lipoxygenase): 100 µM; Inhibition of Lipid Peroxidation of Linoleic Acid Induced by AAPH Radical (%) ([4]; 0 min): 87.6%; Inhibition of Lipid Peroxidation of Linoleic Acid Induced by AAPH Radical (%) ([4]; 3 min): 93.2%; Inhibition of Lipid Peroxidation of Linoleic Acid Induced by AAPH Radical (%) ([4]; 6 min): 95.7%; Inhibition of Lipid Peroxidation of Linoleic Acid Induced by AAPH Radical (%) ([4]; 9 min): 94.3%
7 | O=C1/C(=C/c2cc(O)c(O)cc2O)Oc2ccccc21 [Compound 7b, 2′,4′,5′-Trihydroxy-Aurone] |  | 100% |  | 100% | HO· (%) competition with DMSO for hydroxyl radicals [1]: 77%; Interaction with the Free Radical DPPH (%) ([2]; 0 min): 98.2%; Interaction with the Free Radical DPPH (%) ([2]; 3 min): 99.3%; Interaction with the Free Radical DPPH (%) ([2]; 6 min): 99.5%; Interaction with the Free Radical DPPH (%) ([2]; 9 min): 99.8%; Inhibition of Soybean Lipoxygenase 100 μM (%) (soybean lipoxygenase; at 100 μM): no; ABTS+· % [3]: no
8 | C[C@H](Cc1ccc(O)c(O)c1)[C@@H](C)Cc1ccc(O)c(O)c1 [NDGA, Nordihydroguaiaretic acid, reference compound] |  | 93.0% |  | 87.0% | 
9 | Cc1c(C)c2c(c(C)c1O)CCC(C)(C(=O)O)O2 (stereo not drawn) [Trolox, reference compound] |  | 93.6% | 92.0% | 93.0% | HO· (%) competition with DMSO for hydroxyl radicals [1]: 82%; ABTS+· % [3]: 93%

The next lines start with results.

Row | IC50 (soybean lipoxygenase; [5]) [µM] | Compound | Interaction with the Free Radical DPPH (%) ([2]; 100 μM, 60 min) | Inhibition of Lipid Peroxidation of Linoleic Acid Induced by AAPH Radical (%) ([4]; 100 μM) | Interaction with the Free Radical DPPH (%) ([2]; 100 μM, 20 min) | other results
10 | 75 | COc1cc(OC)c(OC)cc1/C=C/C(=O)c1ccccc1O [Compound 3b, 2′-hydroxy-2,4,5-trimethoxy-chalcone] | no | 67.3% | no | HO· (%) competition with DMSO for hydroxyl radicals [1]: no
11 | 45 | COCOc1ccc(C(=O)/C=C/c2cc(OC)c(OC)cc2OC)c(O)c1 [Compound 3c, 2′-hydroxy-4′-methoxymethoxy-2,4,5-trimethoxy-chalcone] | 2.3% | 39.4% | no | 
12 | 55 | COCOc1ccc(/C=C/C(=O)c2cc(Br)ccc2O)cc1OCOC [Compound 3h, 5′-bromo-3,4-dimethoxymethoxy-2′-hydroxy-chalcone] | 6.0% | 65.6% |  | 
13 | 67.5 | COCOc1ccc(/C=C/C(=O)c2cc(Br)cc(Br)c2O)cc1OCOC [Compound 3i, 3′,5′-bromo-3,4-dimethoxymethoxy-2′-hydroxy-chalcone] | no | 93.0% | totally inactive and no | Inhibition of Lipid Peroxidation of Linoleic Acid Induced by AAPH Radical (%) ([4]; 0 min): 95.6%; Inhibition of Lipid Peroxidation of Linoleic Acid Induced by AAPH Radical (%) ([4]; 3 min): 98.6%; Inhibition of Lipid Peroxidation of Linoleic Acid Induced by AAPH Radical (%) ([4]; 6 min): 96.9%; Inhibition of Lipid Peroxidation of Linoleic Acid Induced by AAPH Radical (%) ([4]; 9 min): 99.2%
14 | 100 | O=C(O)c1ccc(/C=C/C(=O)c2ccccc2O)cc1 [Compound 3j, 4-carboxy-2′-hydroxy-chalcone] | no | no | no | 
15 | 67.5 | O=C(O)c1ccc(/C=C/C(=O)c2cc(Cl)ccc2O)cc1 [Compound 3k, 4-carboxy-5′-chloro-2′-hydroxy-chalcone] | no | no | no | 
16 | 100 | COC(=O)c1ccc(/C=C/C(=O)c2ccccc2O)cc1 [Compound 5, 4-Methoxycarbonyl-2′-Hydroxy-Chalcone] | no | 100% | no | Inhibition of Lipid Peroxidation of Linoleic Acid Induced by AAPH Radical (%) ([4]; 0 min): 95.4%; Inhibition of Lipid Peroxidation of Linoleic Acid Induced by AAPH Radical (%) ([4]; 3 min): 96.9%; Inhibition of Lipid Peroxidation of Linoleic Acid Induced by AAPH Radical (%) ([4]; 6 min): 92.5%; Inhibition of Lipid Peroxidation of Linoleic Acid Induced by AAPH Radical (%) ([4]; 9 min): 98.9%
